Assay results as given in US5798391A, “Injectable solution of benzalkonium fluoride” (Aromafarm Limited, priority 1994, dated 1998).
Where two headings read alike, the source gives them in different places.

Assays:
[1] = tested on: ADENOVIRUS Type 5; assay: virucidal activity of BKF, AFNOR T72-180, molecular screening (Table 3); type: cell-based; details: 32° C.
Procedure: We have determined the virucide activity of tetradecyl-dimethyl-benzyl-ammonium fluoride (BKF) vis-a-vis vertebrate viruses in conformance with French Standard AFNOR T72-180, December 1989. This benzalkonium fluoride was diluted in solution in sterile distilled water at the following concentrations: 0.02, 0.01, 0.005% (weight divided by volume).
adenovirid.ae butted.: adenovirus type 5, cultivated on KB cell,
The water, the culture medium and the reagents are those recognised by Standard AFNOR T72-180. The titration of the virus is by reading the cytopathic test, following the method described in Standard AFNOR T72-180. The calculation of the infectious titration is by the FISHER and YATES method with the WYSHAK and DETRE tables. The results are given in number of infectious units per ml, or plaque-forming units per ml (PFU/ml).
The virucidal activity was then determined by the technique known as molecular screening, consisting of filtration on sephadex gel LH 20 and using subcytotoxic concentrations of benzalkonium fluoride. The virucidal activity was determined as a function of contact time between the benzalkonium fluoride and the viral strain. […] The virucidal activity of benzalkonium fluoride (BKF) is determined by the minimal concentration and minimal contact time with the virus which provoked a reduction of infectious titration of the viruses by a logarithmic factor of a least 4. […]

[2] = in vitro haemolysis of total blood, human; details: human, blood
[3] = tested on: human blood; assay: in vitro haemolysis of total blood, human
[4] = tested on: VERO, KB and MCR-5 cells
[5] = tested on: rabbit blood; assay: in vitro haemolysis of total blood, rabbit
[6] = tested on: guinea pigs; assay: LD 50, unique administration, Behrens and Karber method, guinea pigs; type: in vivo, albino guinea pig
Procedure: The high toxicity of benzalkonium fluoride in unique administration in mice and guinea pigs was determined by the Behrens and Karber method, by intracardiac, intravenous and intraperitoneal injection. The animals used were young adult albino mice and albino guinea pigs. Ten animals were used for each dose administered, five males and five females. The benzalkonium fluoride was used in a 3 g/l isotonic solution of sterile apyrogenic sodium chloride. We observed the animals for 7 days after unique administration carried out using a sterile needle adapted to a syringe graduated in 1/10 ml to allow the treatment of each animal with an exact dose. The animals were weighed each day during the observation period.
The LD 50 (lethal dose 50) was determined.

[7] = tested on: activated human PBMC lymphocytes; assay: toxicity of residual BKF (sample REV4) on infectiousness test cells; type: cell-based; details: REV4: BKF 20 μg/ml diluted in NTE buffer and centrifuged
[8] = tested on: Carre's disease; assay: treatment of dogs suffering from Carre's disease; type: in vivo, dog
Procedure: The invention was used to treat dogs suffering from Carre's disease. This disease, considered fatal and without treatment, is due to an ultravirus.
Twelve dogs were treated with one 10 ml ampoule of benzalkonium fluoride solution at 2.1 g/l for 20 kg of animal. The injection was given once per day for three days. The dogs also had associated treatment (vitamins, antibiotics, vaccines, etc.).

[9] = tested on: dogs (beagles); details: dog, in vivo
[10] = tested on: HERPES SIMPLEX VIRUS TYPE 1; assay: virucidal activity of BKF, AFNOR T72-180, molecular screening (Table 4); type: cell-based, Herpes Simplex Virus Type 1 (HSV 1); details: 32° C.
[11] = tested on: HIV-1 virus (LAI strain); assay: residual infectiousness of treated HIV-1 on activated human lymphocytes, antigen P25 ELISA; type: cell-based, HIV-1 (LAI strain); details: 1/2 dilutions, REV7 (30 min) and REV8 (60 min) (FIG. 4)
[12] = tested on: mycobacterium tuberculosis (wild strain); assay: activity in vitro on mycobacterium tuberculosis, B[…] medium surface impregnation method; type: cell-based; set-up: key to culture of Bacterium Tuberculosis: (+++): positive culture; (-): negative culture
Procedure: We determined the activity in vitro of benzalkonium fluoride on the mycobacterium tuberculosis (wild strain).
This experiment was carried out with the B[…] medium surface impregnation method. The quantity of active substance absorbed by the medium is expressed in cm^2.
The volume of the appropriate dilution of benzalkonium fluoride was 0.25 ml per tube of medium in order to arrive at concentrations of benzalkonium fluoride of 0.1, 0.2 and 0.3% per cm^2 surface of B[…] medium.
A control tube, without benzalkonium fluoride, was used for each of the series.
Three series of tests were carried out with dilutions of 0.1, 0.01 and 0.001 of the mother solution of the Bacterium Tuberculosis strain prepared at 1 mg/ml.
All the tests were carried out in double.

CCCCCCCCCCCCCC[N+](C)(C)Cc1ccccc1.[F-] [benzalkonium fluoride, tetradecyl-dimethyl-benzyl-ammonium fluoride]
virucidal activity: minimal contact time ([1]; 0.02% (m/V)): 120 min | virucidal activity: minimal concentration (reduction by logarithmic factor of at least 4) ([1]; 120 minutes contact): 0.02 % (m/V) | MNTC [2]: ≤ 20 µg/mL | haemolysis ([3]; 37.5 mg/l, man, guinea pig and rabbit blood): Not having noted h.ae butted.molysis | haemolysis (degree of red colouring) ([3]; 20 ppm or mg/l, 6 samples): 0 | haemolysis (degree of red colouring) ([3]; 35 ppm or mg/l, 6 samples): 0 | haemolysis (degree of red colouring) ([3]; 37.5 ppm or mg/l): 0 | haemolysis (degree of red colouring) ([3]; 75 ppm or mg/l): + | haemolysis (degree of red colouring) ([3]; 150 ppm or mg/l): ++ | toxicity threshold (D.L.0) ([4]; after filtration): 0.01% | toxicity threshold (D.L.0) ([4]; before filtration): 0.05% | haemolysis (degree of red colouring) ([5]; 37.5 ppm or mg/l): 0 | haemolysis (degree of red colouring) ([5]; 75 ppm or mg/l): + | haemolysis (degree of red colouring) ([5]; 150 ppm or mg/l): +++ | LD 50 ([6]; female guinea pig, intracardiac): 16.50 mg/mL | LD 50 ([6]; female guinea pig, intraperitoneal): 20.50 mg/mL | LD 50 ([6]; male guinea pig, intracardiac): 15.50 mg/mL | LD 50 ([6]; male guinea pig, intraperitoneal): 28.50 mg/mL | toxicity for the infectiousness test cells [7]: not toxic | dogs with nervous symptoms ([8]; five other dogs, generalised trembling): could not be treated | dogs saved ([8]; of twelve dogs, 10 ml of 2.1 g/l per 20 kg once per day, three days, associated treatment): effective for seven dogs who were saved | total recovery ([8]; seven dogs saved): 18 days | blood in the urine, male [9]: a high level of blood in the urine | blood in urine from bladder, male [9]: no trace of blood | blood in urine, male [9]: absence of blood | glucose in urine, male [9]: absence of glucose | haemolysis in urine samples, female [9]: no signs of h.ae butted.molysis | histological examination of the various organs [9]: no alteration due to treatment | ketonic bodies in urine, male [9]: traces of ketonic bodies | number of leukocytes [9]: increased | proteins in urine, male [9]: traces of proteins | urine sodium and potassium, female [9]: remained almost stable | urine sodium and potassium, male [9]: showed variations | virucidal activity: minimal contact time ([10]; 0.01% (m/V)): 5 min | Viral Titration ([10]; 0.01% (m/V), 30 minutes): 0 PFU/ml | Viral Titration ([10]; 0.01% (m/V), 60 minutes): 0 PFU/ml | Viral Titration ([10]; 0.01% (m/V), 120 minutes): 0 PFU/ml | Viral Titration ([10]; 0.02% (m/V), 15 minutes): 0 PFU/ml | Viral Titration ([10]; 0.02% (m/V), 30 minutes): 0 PFU/ml | Viral Titration ([10]; 0.02% (m/V), 60 minutes): 0 PFU/ml | Viral Titration ([10]; 0.02% (m/V), 120 minutes): 0 PFU/ml | virucidal activity: minimal concentration (reduction by logarithmic factor of at least 4) ([10]; 5 minutes contact): 0.01 % (m/V) | antigen P25 in lymphocyte supernatants [11]: negative | inhibition of the culture ([12]; 0.1, 0.2 and 0.3% per cm^2, dilutions 0.1, 0.01 and 0.001, four weeks at 37° C.): an inhibition of the culture | culture of Bacterium Tuberculosis ([12]; BKF 0.1%/cm^2, BK dilution 0.001, in double): (-) | culture of Bacterium Tuberculosis ([12]; BKF 0.1%/cm^2, BK dilution 0.01, in double): (-) | culture of Bacterium Tuberculosis ([12]; BKF 0.1%/cm^2, BK dilution 0.1, in double): (-) | culture of Bacterium Tuberculosis ([12]; BKF 0.2%/cm^2, BK dilution 0.001, in double): (-) | culture of Bacterium Tuberculosis ([12]; BKF 0.2%/cm^2, BK dilution 0.01, in double): (-) | culture of Bacterium Tuberculosis ([12]; BKF 0.2%/cm^2, BK dilution 0.1, in double): (-) | culture of Bacterium Tuberculosis ([12]; BKF 0.3%/cm^2, BK dilution 0.001, in double): (-) | culture of Bacterium Tuberculosis ([12]; BKF 0.3%/cm^2, BK dilution 0.01, in double): (-) | culture of Bacterium Tuberculosis ([12]; BKF 0.3%/cm^2, BK dilution 0.1, in double): (-)
